Results reported in patent US9738656B2, “Pyranodipyridine compound” (Eisai R&D Management Co., Ltd., priority 2015, dated 2017).
Like-named read-outs stand apart in the source and are kept apart here.

What was measured:
[1] = test system: AMPA receptor; experiment: AMPA-induced intraneuronal calcium entry-suppressing action (primary culture of embryonic rat cerebral cortex neurons, Fura 2-AM); type: cell-based; details: AMPA stimulation, intracellular calcium increase, read-out: IC50 for AMPA inhibition
Text: The present inventors conducted the following tests, in order to confirm the effects of the compounds of the present invention. With regard to the AMPA receptor inhibitory action of the compounds, AMPA-induced intraneuronal calcium entry-suppressing action was examined using a primary culture system of embryonic rat cerebral cortex neurons. With regard to the anticonvulsant action of the compounds, 6 Hz (44 mA) stimulation-induced convulsions known as a treatment-resistant convulsion model were used. AMPA inhibitor-induced central nervous system depressant action such as loss of coordination was evaluated using a rotarod performance test.
AMPA-Induced Intraneuronal Calcium Entry-Suppressing Action
<Culture conditions> Whole fetuses were removed from the uteri of Wistar rats at embryonic day 18 (Charles River Japan) anesthetized with isoflurane. Whole brains were removed from the whole fetuses, and the cerebral cortex was separated in Leibovitz's L-15 medium or Hanks balanced salt solution containing 20% fetal bovine serum. The resulting material was treated with trypsin/DNase solution at 37° C. for 45 to 60 minutes. After the serum was added to stop the trypsin reaction, the resulting material was centrifuged at 1200 to 1500 rpm for 3 to 5 minutes. After the supernatant was removed, Neurobasal medium (containing 2% B-27 supplement and the like; hereinafter “Neurobasal medium”) was added, and the cells were uniformly dispersed by gently pipetting. The cell suspension was slightly stirred, and then filtered through a nylon mesh filter. Viable cells were counted using a hemocytometer, and diluted with Neurobasal medium to 8 to 10×10^5 cells/mL. The cells were seeded into 96 well plates at 100 μL per well and cultured in a CO2 incubator (5% CO2, 37° C.). The medium was replaced after 24 hours, and neurons cultured for 7 to 21 days were used.
On the day of the assay, the medium was removed and replaced with a calcium measurement solution containing 5 to 10 μmol/L of Fura 2-AM (140 mmol/L sodium chloride, 5 mmol/L potassium chloride, 2 mmol/L magnesium chloride, 3 mmol/L calcium chloride, 24 mmol/L D(+)-glucose, 10 mmol/L HEPES, 1 μmol/L MK-801, pH 7.4), and the cells were treated in a CO2 incubator (5% CO2, 37° C.) for 1 to 2 hours. The calcium measurement solution containing the Fura-2 AM solution was subsequently removed, and the neurons in each well were washed twice with the calcium measurement solution for each well, and then 50 μL of the calcium measurement solution was added to each well. Subsequently, 50 μL of a test compound or medium prepared at a concentration 3-fold higher than the final concentration was added, and the cells were pre-treated for about 15 minutes. The plates were subsequently placed on the Fluorescence Drug Screening System 6000 (Hamamatsu Photonics K.K.). The cells were stimulated by adding to each well 50 μL of an AMPA stimulating solution prepared to 3.3 μmol/L with the calcium measurement solution. Changes in calcium concentration were measured as the changes in fluorescence intensity at excitation wavelengths of 340 nm and 380 nm (measurement wavelength: 540 nm). The rate of change of the intracellular calcium concentration was calculated according to the following equation: Rate of increase of the intracellular calcium concentration (% control)=(Tpost−Tpre)/(Cpost−Cpre)×100
wherein Tpost: the proportion of fluorescence of sample wells after stimulation; Tpro: the proportion of fluorescence of sample wells before stimulation; Cpost: the proportion of fluorescence of control wells after stimulation; and Cpre: the proportion of fluorescence of control wells before stimulation.
The IC50 value of the test compound for AMPA inhibition was determined from the rates of increase of the intracellular calcium concentration at various concentrations.

[2] = test system: male ddY mice; experiment: Murine 6 Hz convulsion models (6 Hz, 44 mA corneal stimulation); type: in vivo; details: for ED50: Mus musculus, 25 min; for Therapeutic Index: TD50/ED50 (rotarod test-1 / 6 Hz convulsion model)
Procedure: (§1) With regard to the AMPA receptor inhibitory action of the compounds, AMPA-induced intraneuronal calcium entry-suppressing action was examined using a primary culture system of embryonic rat cerebral cortex neurons. […] AMPA inhibitor-induced central nervous system depressant action such as loss of coordination was evaluated using a rotarod performance test.
Immediately after the rotarod performance test-1 was completed, the cornea was stimulated by passing an electrical current (6 Hz, 44 mA, 0.2-millisecond pulse, for 3 seconds) from a copper electrode moistened with physiological saline, and the presence or absence of the development of a seizure was observed. The seizure was determined by the development of akinesia, jaw and forelimb clonus, whisker tremors, and Straub tail.
Further, for the purpose of evaluating the safety margin of each of the compounds of the present invention, the therapeutic index (TD50/ED50) was calculated by comparing the seizure inhibitory action (ED50) in the 6 Hz convulsion models and the neurotoxic action (TD50) in the rotarod performance test-1.

[3] = test system: male ddY mice; experiment: Rotarod performance test-2; type: in vivo; details: for Time of Fall: mice, oral at the ED50 dose of the 6 Hz model, 25 minutes after administration; for Ratio Relative to the Control Compound: time of fall relative to control compound
Procedure: Rotarod Performance Test-2
(§2) A rotarod (MK-660C from Muromachi Kikai Co., Ltd.) was used for the measurement. The rod (bar) was controlled to be gradually accelerated from its stationary state to a speed of 40 rotations/minute after 180 seconds. As the animals, 5 or 6-week-old male ddY mice (Japan SLC, Inc.) were used. On the day on which the test was performed, the mice were trained under the above-described measurement conditions, and mice that were able to ride on the rod for 1 minute or longer with good reproducibility were selected and subjected to the test.
As the control, only the medium was orally administered. After a lapse of 25 minutes from the oral administration of each compound, the mice were subjected to the rotarod performance test. Five or six mice were used for each compound group. For each compound, the time until the mice fell from the rotarod was measured.

[4] = test system: male ddY mice; experiment: Rotarod performance test-1; type: in vivo; details: oral, 25 minutes after administration, dose at which time of fall is reduced to 50% of medium control
Procedure: as §1
Rotarod Performance Test-1
as §2
Each of the compounds was dissolved in a medium (a solution prepared by adding DMSO to a 0.5% methylcellulose solution to a final concentration of 10%. As required, 0.5 to 5% of 1 mol/L hydrochloric acid and 5% Cremophor™ were added), and then orally administered to the mice in optimum four doses between 0.5 to 10 mg/kg. As the control, only the medium was orally administered. After a lapse of 25 minutes from the oral administration of each compound, the mice were subjected to the rotarod performance test. Five to twenty-five mice were used for each compound group.

[5] = mice, 6 Hz 44 mA stimulation-induced seizure, oral, after rotarod test-1 (25 minutes after administration), read-out: ED50

Row | Compound | IC50 [1] | ED50 ([2]; po) | Therapeutic Index ([2]; mice) | Time of Fall ([3]; Table 3) | Ratio Relative to the Control Compound ([3]; Table 3) | TD50 [4] | Time of Fall ([3]; Table 4) | Ratio Relative to the Control Compound ([3]; Table 4) | ED50 [2, 5]
1 | N#Cc1ncccc1-c1cc2c(n(-c3ccccc3)c1=O)COc1cc(F)cnc1-2 [Example 13, 3-(3-fluoro-8-oxo-7-phenyl-7,8-dihydro-6H-pyrano[3,2-b:5,4-b′]dipyridin-9-yl)picolinonitrile] | 0.0675 µM | 2.25 mg/kg | 1.73 | 84.8 s | 7.0 | 3.89 mg/kg, p.o. | – | – | –
2 | N#Cc1c(F)cccc1-c1cc2c(n(-c3cccnc3)c1=O)COc1cc(F)cnc1-2 [Example 14, 2-fluoro-6-(3-fluoro-8-oxo-7-(pyridin-3-yl)-7,8-dihydro-6H-pyrano[3,2-b:5,4-b′]dipyridin-9-yl)benzonitrile] | 0.0194 µM | 2.09 mg/kg | 2.27 | – | – | 4.76 mg/kg, p.o. | 139.2 s | 9.7 | –
3 | N#Cc1c(F)cccc1-c1cc2c(n(-c3cncc(F)c3)c1=O)COc1cccnc1-2 [Example 15, 2-fluoro-6-(7-(5-fluoropyridin-3-yl)-8-oxo-7,8-dihydro-6H-pyrano[3,2-b:5,4-b′]dipyridin-9-yl)benzonitrile] | 0.0082 µM | 1.41 mg/kg | 1.89 | – | – | 2.67 mg/kg, p.o. | 100.0 s | 7.0 | –
4 | N#Cc1c(F)cccc1-c1cc2c(n(-c3cccnc3)c1=O)COc1cccc(F)c1-2 [Example 16, 2-fluoro-6-(10-fluoro-3-oxo-4-(pyridin-3-yl)-4,5-dihydro-3H-chromeno[3,4-b]pyridin-2-yl)benzonitrile] | < 0.008 µM | 1.05 mg/kg | 1.65 | – | – | 1.73 mg/kg, p.o. | 92.8 s | 6.5 | –
5 | O=c1c(-c2cccc(F)c2Cl)cc2c(n1-c1cncc(F)c1)COc1cccnc1-2 [Example 17, 9-(2-chloro-3-fluorophenyl)-7-(5-fluoropyridin-3-yl)-6H-pyrano[3,2-b:5,4-b′]dipyridin-8(7H)-one] | 0.0177 µM | 2 mg/kg | 2.14 | – | – | 4.27 mg/kg, p.o. | 147.0 s | 10.3 | –
6 | N#Cc1c(F)cccc1-c1cc2c(n(-c3cncnc3)c1=O)COc1cccnc1-2 [Example 18, 2-fluoro-6-(8-oxo-7-(pyrimidin-5-yl)-7,8-dihydro-6H-pyrano[3,2-b:5,4-b′]dipyridin-9-yl)benzonitrile] | 0.029 µM | 2 mg/kg | 2.02 | – | – | 4.03 mg/kg, p.o. | 102.2 s | 7.1 | –
7 | N#Cc1c(F)ccc(F)c1-c1cc2c(n(-c3cccnc3)c1=O)COc1cccnc1-2 [Example 19, 3,6-difluoro-2-(8-oxo-7-(pyridin-3-yl)-7,8-dihydro-6H-pyrano[3,2-b:5,4-b′]dipyridin-9-yl)benzonitrile] | 0.0234 µM | 2 mg/kg | 1.63 | – | – | 3.25 mg/kg, p.o. | 121.7 s | 8.5 | –
8 | N#Cc1c(F)cccc1-c1cc2c(n(-c3cncc(Cl)c3)c1=O)COc1cccnc1-2 [Example 20, 2-(7-(5-chloropyridin-3-yl)-8-oxo-7,8-dihydro-6H-pyrano[3,2-b:5,4-b′]dipyridin-9-yl)-6-fluorobenzonitrile] | 0.00826 µM | 2.47 mg/kg | 1.91 | – | – | 4.74 mg/kg, p.o. | 71.3 s | 5.0 | –
9 | Cc1ncc(-n2c3c(cc(-c4cccc(F)c4C#N)c2=O)-c2ncccc2OC3)cn1 [Example 21, 2-fluoro-6-(7-(2-methylpyrimidin-5-yl)-8-oxo-7,8-dihydro-6H-pyrano[3,2-b:5,4-b′]dipyridin-9-yl)benzonitrile] | 0.0443 µM | – | 2.12 | – | – | 5.30 mg/kg, p.o. | 118.7 s | 8.3 | 2.5 mg/kg
10 | Cc1c(F)cccc1-c1cc2c(n(-c3cccnc3)c1=O)COc1cccnc1-2 [Example 22, 9-(3-fluoro-2-methylphenyl)-7-(pyridin-3-yl)-6H-pyrano[3,2-b:5,4-b′]dipyridin-8(7H)-one] | 0.0533 µM | – | 1.91 | – | – | 6.19 mg/kg, p.o. | 102.8 s | 7.2 | 3.23 mg/kg
11 | O=c1c(-c2c(F)cccc2F)cc2c(n1-c1cccnc1)COc1cccnc1-2 [Referential Example 1, 9-(2,6-difluorophenyl)-7-(pyridin-3-yl)-6H-pyrano[3,2-b:5,4-b′]dipyridin-8(7H)-one] | 0.0441 µM | – | 3.66 | 110.7 s | 9.1 | 5.16 mg/kg, p.o. | – | – | 1.41 mg/kg
